“And” between values parts separate entries of the source, which are not always exact repeats. Identical values can stand only once. Counter-ions that a name gives are not always drawn. Like-named read-outs stand apart in the source and are kept apart here.
How the values were obtained:
[1] = tested on: LPS-induced TNF-α release, NR8383 cells; test: LPS-induced TNF-α production in NR8383 rat macrophages (ELISA); assay type: cell-based
Method: Method for FIG. 5. TNF-alpha assays were performed using PMX-30063. […] TNF-α concentrations in the supernatants were determined by ELISA using an immunoassay kit specific for rat TNF-α (R&D Systems, Minneapolis, MN) according to manufacturer's instructions.
Method for FIG. 6. TNF-alpha assays were performed using PMX-60056. NR8383 rat macrophage cells were pretreated with PMX-60056 for 45 minutes followed by treatment with 1 μg/ml LPS from E. coli (Sigma, St. Louis, MO) for 8 hours. TNF-α concentrations in the supernatants were determined by ELISA using an immunoassay kit specific for rat TNF-α (R&D Systems, Minneapolis, MN) according to manufacturer's instructions.
The TNF-α inhibition assay was performed according to the Method described for FIG. 5. […] TNF-α concentrations in the supernatants were determined by ELISA using an immunoassay kit specific for rat TNF-α (R&D Systems).
The TNF-α inhibition assay was performed according to the Method described for FIG. 6. NR8383 rat macrophage cells (CRL-2192. ATCC) were pretreated with PMX-60056 for 45 minutes followed by treatment with 1 μg/ml LPS for 8 hours. TNF-α concentrations in the supernatants were determined by ELISA using an immunoassay kit specific for rat TNF-α (R&D Systems).
(§1) PDE4 and PDE3 inhibition results in subsequent down-regulation of pro-inflammatory cytokines/chemokines and its regulators, and experiments were conducted to confirm such down-regulation by brilacidin in ex vivo cell-based assays. In these assays, cells were exposed to brilacidin 45 minutes before an 8-hour lipopolysaccharide (LPS) stimulation in the presence of brilacidin; cytokine/enzyme concentrations were determined by ELISA using a standard immunoassay kit.

[2] = tested on: LPS-induced MCP-1 release, NR8383 cells; test: LPS-induced MCP-1 release in NR8383 rat macrophages (ELISA); assay type: cell-based
Method: Method for FIG. 7. […] After 8 hours, supernatants were collected for MCP-1 measurement by ELISA. MCP-1 was measured using an immunoassay kit according to manufacturer's instructions (Thermo Scientific, Rockford. IL).
Method for FIG. 8. MCP-1 assays were performed using PMX-60056. Rat macrophages (NR8383) were pretreated with […] with concentrations shown for 45 minutes, followed by 1 μg/ml LPS treatment from E. coli (Sigma, St. Louis, MO) for 8 hours. After 8 hours, supernatants were collected for MCP-1 measurement by ELISA. MCP-1 was measured using an immunoassay kit according to manufacturer's instructions (Thermo Scientific, Rockford, IL).
The MCP-1 inhibition assay was performed according to the Method described for FIG. 7.
The MCP-1 inhibition assay was performed according to the Method described for FIG. 8.
as §1

[3] = Plasma pharmacokinetics after IV or PO administration (Study 16009-12001); assay type: in vivo, male Balb/c mice; details: male mice; for Cmax: read-out: Cmax (peak concentration)
From the text: Method for FIG. 11. […] The test article, PMX-30063, was corrected for salt form but no adjustment was made for purity. […] The resulting formulation was clear colorless solution (pH 7) and was stored at room temperature until administered. The formulated solution was clear and colorless until dosing was completed.
A total of 60 male Balb/c mice, approximately 4-7 weeks of age at receipt with body weight of 18.0 g to 21.9 g were used in this study.
Three mice in each group were used for blood at each time point at post-dose at 5 minutes, 15 minutes, 30 minutes, 1, 2, 4, 8, and 24 hours for Groups 1-2. Blood samples (at least 300 μL/sample) were collected via cardiac puncture after euthanasia by carbon dioxide inhalation at appropriate time points. Samples were placed in tubes containing K2-EDTA, and then centrifuged at approximately 8,000 rpm for 6 minutes at 4° C. and the resulting plasma were separated and stored frozen at approximately −80° C.
The pharmacokinetic (PK) analysis were conducted by Medicilon Preclinical Research (Shanghai) LLC. The PK parameters were determined by the Study Director for the test article from mean concentration-time data in the test species. A non-compartmental module of WinNonlin™ Professional 5.2 was used to calculate parameters. Any BLQs (LLOQ=2.5 ng/mL for plasma and LLOQ=500 ng/g for small intestine) were replaced with a value of “0”, and the mean value and its standard deviation (SD) are calculated with these replaced values.
Plasma samples (50 μL) were transferred to centrifuge tube, then 250 μL IS solution (50 ng/mL Carvedilol) was added to it. After vortexing for 1 minute and centrifuging for 5 minutes at 15,000 rpm, 100 μL aliquots of supernatant were transferred to glass autosampler vials.

human PDE3A = human PDE3A (Homo sapiens, UniProt Q14432); test: PDE-Glo phosphodiesterase assay, PDE3; assay type: biochemical; details: 2.75 ng PDE3A, 1 μM cAMP substrate, 15 min pre-incubation; read-out: IC50, inhibition of PDE3
Method: Method for FIG. 3. […] The compounds and PDE3A were mixed and pre-incubated at room temperature for 15 minutes. Substrate was added and the reaction was incubated for 7 minutes at room temperature. Data are presented as luminescence units (RLU).
Method for FIG. 4. Phosphodiesterase inhibition assays of PDE3 were performed using PMX-60056. The PDE-Glo phosphodiesterase assay (Promega, Madison, WI, USA Catalog No. V1361) was performed according to manufacturer's instruction using 2.75 ng of PDE3A, 1 μM cAMP substrate and PMX60056. The compounds and PDE3A were mixed and pre-incubated at room temperature for 15 minutes. Substrate was added and the reaction was incubated for 7 minutes at room temperature. Data are presented as luminescence units (RLU).
The compounds and PDE3A were mixed and pre-incubated at room temperature for 15 minutes. Substrate was added and the reaction was incubated. […]
as §1

Sequence of human PDE3A (Q14432 whole entry): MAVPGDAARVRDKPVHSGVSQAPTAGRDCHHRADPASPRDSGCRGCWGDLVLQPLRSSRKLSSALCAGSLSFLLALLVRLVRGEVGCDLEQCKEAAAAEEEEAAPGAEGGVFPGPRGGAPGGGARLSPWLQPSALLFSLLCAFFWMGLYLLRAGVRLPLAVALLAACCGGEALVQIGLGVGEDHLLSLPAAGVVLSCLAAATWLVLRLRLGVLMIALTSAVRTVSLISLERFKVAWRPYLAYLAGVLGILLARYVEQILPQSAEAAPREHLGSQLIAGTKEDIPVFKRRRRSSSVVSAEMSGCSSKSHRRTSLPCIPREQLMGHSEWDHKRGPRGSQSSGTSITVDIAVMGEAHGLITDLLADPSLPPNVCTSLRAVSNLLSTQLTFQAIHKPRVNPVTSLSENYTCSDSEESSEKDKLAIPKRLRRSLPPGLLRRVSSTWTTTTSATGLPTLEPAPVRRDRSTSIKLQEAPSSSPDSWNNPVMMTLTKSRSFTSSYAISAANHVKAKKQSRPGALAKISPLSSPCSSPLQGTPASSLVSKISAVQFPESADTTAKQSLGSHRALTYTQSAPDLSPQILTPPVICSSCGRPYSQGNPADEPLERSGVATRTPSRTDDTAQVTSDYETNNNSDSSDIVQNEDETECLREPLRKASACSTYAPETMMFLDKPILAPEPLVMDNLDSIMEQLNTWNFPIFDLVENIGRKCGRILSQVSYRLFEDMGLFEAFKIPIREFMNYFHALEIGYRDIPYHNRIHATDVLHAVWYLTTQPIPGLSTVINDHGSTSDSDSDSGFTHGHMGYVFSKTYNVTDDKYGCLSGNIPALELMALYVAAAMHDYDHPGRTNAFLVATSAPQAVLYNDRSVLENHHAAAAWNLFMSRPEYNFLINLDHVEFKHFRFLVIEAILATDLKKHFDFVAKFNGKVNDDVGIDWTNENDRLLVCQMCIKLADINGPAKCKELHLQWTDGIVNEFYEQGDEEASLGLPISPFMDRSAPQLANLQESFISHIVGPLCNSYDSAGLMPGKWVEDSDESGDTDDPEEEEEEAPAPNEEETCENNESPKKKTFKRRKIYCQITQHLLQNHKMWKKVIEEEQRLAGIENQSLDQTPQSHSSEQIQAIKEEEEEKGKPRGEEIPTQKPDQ

Compound: N=C(N)NCCCCC(=O)Nc1cc(C(F)(F)F)cc(NC(=O)c2cc(C(=O)Nc3cc(C(F)(F)F)cc(NC(=O)CCCCNC(=N)N)c3O[C@@H]3CCNC3)ncn2)c1O[C@@H]1CCNC1 [PMX-30063, N^4,N^6-bis(2-((R)-pyrrolidin-3-yloxy)-3-((4-carbamoylbutyl)guanidine)-5-(trifluoromethyl)phenyl)pyrimidine-4,6-dicarboxamide tetrahydrochloride salt]
- effect on LPS-induced TNF-α production (in words) ([1]; NR8383, 45 min pretreatment, 1 μg/ml LPS 8 h): inhibited
- inhibition at 0.5 µM ([1]; Rattus norvegicus, Macrophage, 8 h): ~50%
- IC50 ([1]; Rattus norvegicus, Macrophage, NR8383 cells, ELISA, 45 min pretreatment, 8-hour LPS, read-out: IC50, inhibition of LPS-induced TNF-α release): 442 nM
- effect on MCP-1 induction after LPS stimulation (in words) ([2]; NR8383, 45 min pretreatment, LPS 1 μg/ml 8 h): strong inhibition
- IC50 ([2]; Rattus norvegicus, Macrophage, NR8383 cells, ELISA, 45 min pretreatment, 8-hour LPS, read-out: IC50, inhibition of LPS-induced MCP-1 release): 750 nM
- decrease in MCP-1 levels ([2]; at 0.5 μM, NR8383, LPS 1 μg/ml 8 h): ≥ 25%
- AUC(0-inf) ([3]; Balb/c, mouse, IV 5 mg/kg): 97800 ng·h/mL
- AUC(0-t) ([3]; Balb/c, mouse, IV 5 mg/kg): 97700 ng·h/mL
- Tmax ([3]; Balb/c, mouse, IV 5 mg/kg): 0.083 h
- clearance ([3]; Balb/c, mouse, IV 5 mg/kg): 0.852 mL/min/kg
- half-life ([3]; Balb/c, mouse, IV 5 mg/kg): 2.76 h
- Cmax ([3]; Balb/c, mouse, IV 5 mg/kg): 48400 ng/mL
- Vd ([3]; Balb/c, mouse, IV 5 mg/kg, read-out: Vz): 0.204 L/kg
- AUC(0-inf) ([3]; Balb/c, mouse, PO 10 mg/kg): 113 ng·h/mL
- AUC(0-t) ([3]; Balb/c, mouse, PO 10 mg/kg): 111 ng·h/mL
- Tmax ([3]; Balb/c, mouse, PO 10 mg/kg): 2 h
- half-life ([3]; Balb/c, mouse, PO 10 mg/kg): 1.26 h
- Cmax ([3]; Balb/c, mouse, PO 10 mg/kg): 33.7 ± 8.56 ng/mL
- MRT(0-∞) ([3]; IV 5 mg/kg): 2.86 H
- F* ([3]; PO 10 mg/kg vs IV 5 mg/kg): 0.0579%
- MRT(0-∞) ([3]; PO 10 mg/kg): 2.68 H
- IC50 (human PDE3A): ~1800 nM and 1800 nM
